B1: Rap80 (residues 1 - 233): soluble fragment of Rap80 longer than the minimal tUIMs (protein, UniProt Q96RL1 1-233, looked up, fragment)
chain: MPRRKKKVKEVSESRNLEKKDVETTSSVSVKRKRRLEDAFIVISDSDGEEPKEENGLQKTKTKQSNRAKCLAKRKIAQMTEEEQFALALKMSEQEAREVNSQEEEEEELLRKAIAESLNSCRPSDASATRSRPLATGPSSQSHQEKTTDSGLTEGIWQLVPPSLFKGSHISQGNEAEEREEPWDHTEKTEEEPVSGSSGSWDQSSQPVFENVNVKSFDRCTGHSAEHTQCGKP

Legend:
[1] = test system: K63-linked diUb (K63-Ub2); assay: Fluorescence anisotropy binding to K63-linked diUb
K63-Ub4 = assay: Fluorescence anisotropy binding to K63-linked tetraUb; details: ratio of Kd values, solution-state measurements

Row | linkage selectivity for diUb (K63-Ub2 vs K48-Ub2), in words [1] | K63-Ub2 binding affinity, in words ([1]; compared with other tUIM peptides) | preference for K63-Ub4 over K48-Ub4 (K63-Ub4) | Molecule
1 | very little selectivity | substantially more weakly |  | REVNSQEREVNSQE: Rap80 tUIM peptide with linker between UIMs extended to 14 residues
2 |  |  | 7 fold | B1

Reference: paper PMC2709242 (Molecular cell, 2009)
